Assay results taken from patent US8461183B2, “PPAR agonist compounds, preparation and uses” (Genfit, priority 2008, dated 2013).

Key:
db/db mouse [1] = test: Glucose tolerance test in the db/db mouse; assay type: in vivo; conditions: 30 mpk, treated 9 days, oral glucose 1 g/kg after fasting
Procedure: (§1) The aim of this study is to evaluate in vivo the antidiabetic character of the compounds according to the invention, in the db/db mouse (Berger J et al., 1996). The antidiabetic effect of the compounds is evaluated by measuring glycemia and insulinemia after 8 days of treatment. In diabetic animals (as in humans), administration of glucose leads to a significant increase in the plasma level of insulin. This induced hyperinsulinemia causes a lowering of glycemia, which is delayed in insulin-resistant animals, for example in the db/db mouse.
After 9 days, the animals were deprived of food for 16 hours before carrying out the glucose tolerance test. The latter consists of a single administration of glucose after fasting (administered orally at a dose of 1 g/kg). Blood samples were then taken from time to time to study the evolution of plasma glycemia.
(§2) Glucose was determined by enzyme assays (bioMérieux-Lyons-France) according to the suppliers recommendations.

[2] = system: PPARδ target genes (PDK4, CPT1b, UCP2) in murine myocytes; test: Expression of PPARδ target genes in murine myocytes (differentiated C2C12 cells); assay type: cell-based; conditions: 24 hours, Cpd 7 at 0.1, 1, 10 μM, Cpd 24 at 0.2, 2, 20 μM, normalized to 36B4
Procedure: The PPARδ agonist properties previously measured in vitro were evaluated by measuring, in murine myocytes, the expression of genes involved in lipid and carbohydrate metabolism and energy expenditure (PDK4, CPT1b, UCP2). Regulation of expression of these genes, in this cell type, is a direct consequence of the activation of PPARδ by the compounds according to the invention. The greater the increase in expression of the genes, the more the compound according to the invention is a stimulator of metabolism in muscle cells (Dressel U et al., 2003).
The C2C12 murine cells (from ECACC) are cultivated in DMEM medium (Gibco; 41965-039) supplemented with 1% L-glutamine (Gibco; 25030), 1% penicillin/streptomycin (VWR; BWSTL0022/100) and 10% decomplemented fetal calf serum (FCS. Gibco; 10270-106).
The cells are seeded in 24-well plates at a density of 50×10^3 cells/well. At confluence, the medium is replaced with a differentiation medium (base culture medium supplemented with 2% of horse serum (Gibco; 26050-088)) then culture is continued at 37° C. and 5% CO2 for 7 days in order to permit differentiation of the myoblasts into myocytes.
After 6 days of differentiation, the cells are put in a deprivation medium (base culture medium without serum) for 6 hours. The cells are then treated with the compounds according to the invention in the deprivation medium. The compounds according to the invention were tested at doses of 0.1, 1, 10 μM and 0.2, 2 and 20 μM respectively. The compounds according to the invention were dissolved in dimethylsulfoxide (DMSO, Sigma; D5879). The cells are treated for 24 hours at 37° C., 5% CO2. The effects for the compounds tested were compared with the effect of DMSO alone at a concentration of 0.1%.
These procedures were performed on the cells essentially as described in Example 10 (point c) of the Protocols.
The following primer pairs specific to the genes investigated were used: […]

db/db mouse [3] = test: Antidiabetic character in the db/db mouse: plasma glycemia, insulinemia, HOMA index; assay type: in vivo; conditions: 30 mpk oral, 8 days
Procedure: as §1
Male db/db mice (CERJ—Le Genest St Isle-France) are used for this experiment. After acclimation for one week, the mice were weighed and put into groups of 8 animals, selected in such a way that the distribution of their bodyweight and of their fasting glycemia determined for the first time before the experiment are uniform. The compound tested was suspended in carboxymethylcellulose (Sigma C4888) and administered by stomach tube, at a rate of once a day for 9 days at the chosen dose. The animals had free access to water and food (standard diet) and were housed in ventilated cages with a rhythm of light and darkness of 12 hours/12 hours at a constant temperature of 20±3° C. The food intake and weight gain were recorded throughout the experiment. After administration of the compound for 8 days, a blood sample was taken by puncture in the retro-orbital sinus of the animals under volatile anesthesia with isoflurane in order to measure the plasma concentrations of glucose and insulin.
Assay of murine insulin is carried out by the Elisa method (Insulin Elisa Kit-Crystal Chem. USA). A mouse anti-insulin antibody is fixed on a microplate. The serum to be assayed for insulin is then deposited on this plate. A guinea pig anti-insulin antibody will recognize the insulin/mouse monoclonal anti-insulin antibody complex and bind to it. […]
as §2

## COc1nc(-c2ccc(C(F)(F)F)cc2)ccc1COc1ccc(OCC(=O)O)cc1 [Cpd 24, 2-(4-((2-methoxy-6-(4-(trifluoromethyl)phenyl)pyridin-3-yl)methoxy)-phenoxy)ethanoic acid]
db/db mouse [1]
  glucose tolerance test (insulin resistance): marked decrease in insulin resistance
[2]
  expression of CPT1b: significant effects of stimulating expression
  expression of PDK4: significant effects of stimulating expression
  expression of UCP2: significant effects of stimulating expression
db/db mouse [3]
  glycemic profile (plasma glucose): overall improvement
  insulinemic profile (plasma insulin): overall improvement
db/db mouse [3]; calculated from plasma glucose and insulin
  HOMA index: decrease
